# Test results: patent US12714711B2, “Salts of neuroceuticals and uses thereof” (priority 2020, dated 2026)
# How the values were obtained:
# in vivo = details: rat, po
# Method: All animals used in this study were adult rats (at least 2.5 months of age).
# Male Sprague-Dawley rats having a bodyweight between 250-300 g were randomly assigned to two groups. […] The chemicals were suspended in sesame oil and administrated by single oral gavage at 2 ml/kg. All rats were fasted overnight with free access to water before oral administration of the testing compositions. On the day of dosing, the blood samples were collected at 0 min (prior to dosing), and 0.25, 0.5, 1, 2, 4, 6, 8, and 24 hr post-dosing.
# Blood samples were collected from rat jugular veins and transferred into tubes coated with sodium heparin. To obtain plasma, the blood samples were centrifuged at 2,500×g for 15 min at 4° C. and the supernatants were collected and kept frozen in a freezer at −80° C., until they were analyzed.
# The plasma concentration of donepezil was determined by LC/MS. The chromatographic separation was carried out on a 5 μm EVO C8 100 Å LC column (100×4.6 mm, Kinetex®). The mobile phase was 0.1% formic acid in water and acetonitrile:methanol=8:2 set as gradient. Flow rate used was 0.3 mL/min. Column temperature was maintained at 40° C. and the injection volume was 30 μL.
# The pharmacokinetic parameters were calculated using non-compartmental analysis (NCA) with WinNonlin to assess the systemic exposure of donepezil in rats.
# [1] = Water solubility at 25° C.; details: for solubility: water, 25 °C; for water solubility: 25° C.
# MK-801 treated mice = assay: Open field test, MK-801 induced hyper-locomotion; details: for Open-field test, anti-hyperactivity effect (formula [formula] not readable) / Open-field test effect (formula [formula] not readable): acute oral; for Open-field test, anti-hyperactivity effect (formula [formula] not readable): mice; for locomotor activity in MK-801 treated mice: MK-801 0.2 mg/kg i.p.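 As to all read-outs here: adult male C57BL/6J mice, locomotion counted as total photobeam breaks over 60 minutes in an open field photobeam activity system.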
# Method: All mice were tested with open field task.
# In this study, the mice were placed in a Plexiglas cage (37.5 cm×21.5 cm×18 cm) under 50-65 lux light intensity. Their spontaneous locomotor activities were measured for 60 minutes using the Photobeam Activity System (PAS)-open field (San Diego Instruments, San Diego, Calif., USA). The total number of photo beam breaks of each mouse was measured as an index of locomotor activity.
# The schizophrenia-like behavior, MK801-induced hyperactivity, were tested by open field task.
# All mice were tested in an open field task.
# The schizophrenia-like behavior, NMDA-hypofunction-induced hyperactivity, were tested by open field task.
# The amount of paliperidone administered to Groups 3 and 4 was equal. The schizophrenia-like behavior, MK801-induced hyperactivity, were tested by open field task.
# The amount of paliperidone administered to Groups 3 and 4 was equal. The schizophrenia-like behavior, NMDA-hypofunction-induced hyperactivity, were tested by open field task.
# mice = assay: von Frey test, paw withdrawal threshold; assay type: in vivo, C57BL/6J male mice; details: for paw withdrawal threshold compared to vehicle control group / AUC values of von Frey pain threshold compared to vehicle control group / AUC of von Frey pain threshold relative to gabapentin group: mice, single oral dose; for paw withdrawal threshold compared to vehicle control group: gabapentin 20 mg/kg equivalent (salts 192, 106.02, 77.34 mg/kg), 15-180 min; for paw withdrawal threshold compared to vehicle control group / AUC values of von Frey pain threshold compared to vehicle control group: enriched TA 200 mg/kg; for AUC values of von Frey pain threshold compared to vehicle control group: gabapentin 20 mg/kg equivalent; for Pain threshold to time AUC after 120 min: von Frey test, acute oral, 20 mg/kg; for AUC of von Frey pain threshold relative to gabapentin group: same amount of gabapentin (20 mg/kg)
# Method: The objective of this experiment was to assess the analgesic effects of gabapentin:enriched tannic acid salts in mice. The testing compounds were administrated to mice by oral gavage before von Frey test (a typical assay for pain sensation).
# Mice used in this study were randomly assigned into six groups: • Group 1: Vehicle control • Group 2: Enriched TA (200 mg/kg) • Group 3: GBP (20 mg/kg) • Group 4: GBP:enriched TA 1:1 salt (192 mg/kg) • Group 5: GBP:enriched TA 2:1 salt (106.02 mg/kg) • Group 6: GBP:enriched TA 3:1 salt (77.34 mg/kg)
# Each mouse in Groups 1-6 received a single, oral dose of 65% PEG400 in ddH2O, enriched tannic acid at 200 mg/kg, gabapentin at 20 mg/kg, gabapentin:enriched tannic acid 1:1 salt (192 mg/kg), gabapentin:enriched tannic acid 2:1 salt (106.02 mg/kg) and gabapentin:enriched tannic acid 3:1 salt (77.34 mg/kg). The amount of gabapentin administered to the mice in Groups 3 to 6 was the same.
# Mice were habituated in individual transparent acrylic box on a wire-mesh floor for 30 min before testing. An electronic von Frey apparatus (Bioseb-EVF4S) was used to measure the paw withdrawal thresholds (g) of each mouse before drug administration (baseline) and at 15, 30, 60, 120 and 180 mins after drug administration.
# [2] = mouse, in vivo, ip, 10 mg/kg
# Method: The testing compounds were administered to mice either through intraperitoneal (i.p.) injection or oral gavage before analyzing blood glucose levels.
# For the acute study, two cohorts of mice were used.
# For repeated-dose study, mice were randomly assigned into five groups as listed below. • Group 1: Vehicle control • Group 2: Clz (3 mg/kg) • Group 3: Clz:NA 1:1 salt (4.13 mg/kg) • Group 4: Clz (10 mg/kg) • Group 5: Clz:NA 1:1 salt (13.77 mg/kg)
# The night before blood glucose levels were measured, the mice were fasted. Blood glucose levels were measured with a portable glucose meter (Contour® Plus, Bayer AG, Leverkusen, Germany) After waiting for 60 min, the treatments indicated above were administered. FIG. 75 illustrates the experimental design of this study.
# Two cohorts of mice were used in this study. In cohort 1, mice were randomly assigned into the five groups listed below: • Group 1: Vehicle control • Group 2: NA (3.94 mg/kg) • Group 3: Olz (10 mg/kg) • Group 4: Olz (10 mg/kg)+NA (3.94 mg/kg) • Group 5: Olz:NA 1:1 salt (13.94 mg/kg)
# Dosing occurred 60 min prior to measuring blood glucose levels.
# In cohort 2, mice were randomly assigned into the five groups listed below: • Group 1: Vehicle control • Group 2: Olz (5 mg/kg) • Group 3: Olz:NA 1:1 salt (6.97 mg/kg) • Group 4: Olz (10 mg/kg) • Group 5: Olz:NA 1:1 salt (13.94 mg/kg)
# The night before the glucose tolerance test, the mice fasted. Blood glucose levels were measured in whole blood that was collected from the mouse's tail vein. Glucose levels were measured with a portable glucose meter (Contour® Plus, Bayer AG, Leverkusen, Germany), with the measurement occurring 60 min after the mice were dosed with the treatments indicated above Immediately following the glucose measurement, all mice were subjected to a glucose tolerance test, which involved an intraperitoneal challenge injection of 1 g/kg of glucose, followed by measuring blood glucose levels at 0, 30, 60 and 120 minutes.
# [3] = Carr Index (USP 1174), flowability; assay type: physicochemical
# [4] = MK801 model, dosage of clozapine 1 mg/kg
# [5] = MK801 model, dosage of clozapine 2 mg/kg
# [6] = paliperidone 0.06 mg/kg (nicotinic acid salt study)
# [7] = oral paliperidone 0.06 mg/kg or nicotinic acid 1:2 salt 0.094 mg/kg
# [8] = paliperidone 0.06 mg/kg (benzoic acid salt study)
# [9] = oral paliperidone 0.06 mg/kg or benzoic acid salt 0.076 mg/kg
# [10] = risperidone 10 mg/kg as printed in Table 29
# [11] = oral risperidone 0.06 mg/kg or nicotinic acid salt 0.078 mg/kg
compound,measurement,setting,value
"CN1CCN(C2=Nc3cc(Cl)ccc3Nc3ccccc32)CC1 [clozapine, reference compound]",AUC,"in vivo; male, Sprague-Dawley, 60 mg/kg",1320 ng·h/mL
same,AUC Increased (%),"in vivo; male, Sprague-Dawley, 60 mg/kg",100%
same,Tmax,"in vivo; male, Sprague-Dawley, 60 mg/kg",1 h
same,half-life,"in vivo; male, Sprague-Dawley, 60 mg/kg",5.6 ± 1.7 h
same,solubility,[1],0.18 mg/mL
same,Recovery rate (%),"MK-801 treated mice; MK801-treated mice, dosage of clozapine 1 mg/kg (benzoic acid salt study)",65.1%
same,Recovery rate (%),MK-801 treated mice; [4],57%
same,Recovery rate (%),MK-801 treated mice; [5],79%
same,"Open-field test, anti-hyperactivity effect (formula [formula] not readable)",MK-801 treated mice; clozapine 1 mg/kg,18.77%
"Cc1cc2c(s1)Nc1ccccc1N=C2N1CCN(C)CC1 [olanzapine, reference compound]",Recovery rate (%),"MK-801 treated mice; MK801-treated mice, dosage of olanzapine 0.1 mg/kg",36.8%
same,Open-field test effect (formula [formula] not readable),MK-801 treated mice; olanzapine 0.5 mg/kg,85.8%
same,"Open-field test, anti-hyperactivity effect (formula [formula] not readable)",MK-801 treated mice; olanzapine 0.5 mg/kg,30.53%
olanzapine:enriched tannic acid 2:1 salt,"Open-field test, anti-hyperactivity effect (formula [formula] not readable)",MK-801 treated mice; olanzapine 0.5 mg/kg,112.82%
gabapentin:enriched tannic acid 2:1 salt,paw withdrawal threshold compared to vehicle control group,mice,significantly higher at 30 min
"NCC1(CC(=O)O)CCCCC1 [gabapentin, reference compound]",paw withdrawal threshold compared to vehicle control group,mice,no difference from control group at any time point examined
same,AUC values of von Frey pain threshold compared to vehicle control group,mice,little to no effect
same,Pain threshold to time AUC after 120 min,mice,1.28
CN1CCN(C2=Nc3cc(Cl)ccc3Nc3ccccc32)CC1.O=C(O)c1cccnc1 [clozapine:nicotinic acid 1:1 salt],T1/2,in vivo,3.2 ± 1.4 h
same,Tmax,in vivo,0.8 h
same,AUC Increased (%),in vivo; 60 mg/kg,161.8%
same,reduction of clozapine-induced hyperglycemia,[2],46.8%
same,Recovery rate (%),MK-801 treated mice; [4],86%
same,Recovery rate (%),MK-801 treated mice; [5],100%
gabapentin:enriched tannic acid 3:1 salt,paw withdrawal threshold compared to vehicle control group,mice,"significantly higher at 30, 60 and 120 min after administration"
same,AUC values of von Frey pain threshold compared to vehicle control group,mice,significantly higher
same,AUC of von Frey pain threshold relative to gabapentin group,mice,about twice as high as in gabapentin group
same,Pain threshold to time AUC after 120 min,mice,2.80
Cc1nc2n(c(=O)c1CCN1CCC(c3noc4cc(F)ccc34)CC1)CCCC2O.O=C(O)c1cccnc1.O=C(O)c1cccnc1 (stereo not shown) [paliperidone:nicotinic acid 1:2 salt],Carr Index,[3],29%
same,water solubility,[1],137.3 mg/mL
same,Open-field test effect (formula [formula] not readable),MK-801 treated mice; [6],89.7%
same,locomotor activity in MK-801 treated mice,MK-801 treated mice; [7],"significant decreases in locomotion activity, compared with paliperidone group"
"Cc1nc2n(c(=O)c1CCN1CCC(c3noc4cc(F)ccc34)CC1)CCCC2O.O=C(O)c1ccccc1 (stereo not shown) [paliperidone:benzoic acid 1:1 salt, Paliperidone:Benzoic Acid 1:1 Salt]",Carr Index,[3],13%
same,water solubility,[1],10.4 mg/mL
same,Open-field test effect (formula [formula] not readable),MK-801 treated mice; [8],85.0%
same,locomotor activity in MK-801 treated mice,MK-801 treated mice; [9],"significant decrease in locomotion activity, compared with paliperidone group"
"Cc1nc2n(c(=O)c1CCN1CCC(c3noc4cc(F)ccc34)CC1)CCCC2O (stereo not shown) [paliperidone, reference compound]",Carr Index,[3],29%
same,solubility,[1],0.29 mg/mL
same,Open-field test effect (formula [formula] not readable),MK-801 treated mice; [8],50.3%
same,Open-field test effect (formula [formula] not readable),MK-801 treated mice; [6],50.3%
same,locomotor activity in MK-801 treated mice,MK-801 treated mice; [9],alleviates MK-801 induced hyperactivity
same,locomotor activity in MK-801 treated mice,MK-801 treated mice; [7],alleviates MK-801 induced hyperactivity
"OCCOCCN1CCN(C2=Nc3ccccc3Sc3ccccc32)CC1 [quetiapine, reference compound]",Open-field test effect (formula [formula] not readable),MK-801 treated mice; quetiapine 10 mg/kg,8.7%
same,locomotor activity in MK-801 treated mice,MK-801 treated mice; oral quetiapine 10 mg/kg or nicotinic acid salt […],alleviates MK-801 induced hyperactivity
olanzapine:pantothenic acid 5:1 salt,Open-field test effect (formula [formula] not readable),MK-801 treated mice; olanzapine 0.5 mg/kg,101.0%
same,locomotor activity in MK-801 treated mice,MK-801 treated mice; oral olanzapine 0.5 mg/kg or 5:1 salt 0.547 mg/kg,higher potency to MK-801-induced hyperactivity
"Cc1nc2n(c(=O)c1CCN1CCC(c3noc4cc(F)ccc34)CC1)CCCC2.O=C(O)c1cccnc1 [risperidone:nicotinic acid 1:1 salt, resperidone:nicotinic acid 1:1 salt]",water solubility,[1],2170.77 mg/mL
same,Open-field test effect (formula [formula] not readable),MK-801 treated mice; [10],80.1%
same,locomotor activity in MK-801 treated mice,MK-801 treated mice; [11],higher potency to MK-801-induced hyperactivity
gabapentin:enriched tannic acid 1:1 salt,paw withdrawal threshold compared to vehicle control group,mice,significantly higher at 60 and 120 min
same,AUC values of von Frey pain threshold compared to vehicle control group,mice,significantly higher
same,AUC of von Frey pain threshold relative to gabapentin group,mice,about twice as high as in gabapentin group
"Cc1nc2n(c(=O)c1CCN1CCC(c3noc4cc(F)ccc34)CC1)CCCC2 [risperidone, reference compound]",solubility,[1],< 0.005 mg/mL
same,Open-field test effect (formula [formula] not readable),MK-801 treated mice; [10],48.7%
same,locomotor activity in MK-801 treated mice,MK-801 treated mice; [11],alleviates MK-801 induced hyperactivity
"O=C(O)/C=C/C(=O)O.OCCOCCN1CCN(C2=Nc3ccccc3Sc3ccccc32)CC1 [quetiapine:fumaric acid 1:1 salt, reference compound]",Carr Index,[3],33%
